According to ChEMBL document CHEMBL1156591, “Selective inhibitory effects of hybrid liposomes on the growth of HIV type 1-infected cells in vitro” (Bioorg Med Chem Lett, 2008):
pIC50: −log10 of the molar value.

Legend:
MOLT-4 = test: Growth inhibition of human MOLT4 cells after 5 days by MTT assay; format: cell-based; details: MOLT-4, 120 h
[1] = system: Human immunodeficiency virus 1; test: Growth inhibition of HIV1 3B infected human MOLT4 cells after 5 days by MTT assay; format: functional, organism-based; details: Human immunodeficiency virus 1, 3B, MOLT-4, 120 h

| Compound | pIC50 (MOLT-4) | pIC50 [1] |
| --- | --- | --- |
| CCCCCCCCCCCCOCCOCCOCCOCCOCCOCCOCCOCCOCCOCCOCCOCCOCCOCCOCCOCCOCCOCCOCCOCCOCCOCCOCCOCCOCCO | 3.66 | 4.40 |
| CCCCCCCCCCCCOCCOCCOCCOCCOCCOCCOCCOCCO | 4.23 | 4.54 |
| CCCCCCCCCCCCCC(=O)OC[C@H](COP(=O)([O-])OCC[N+](C)(C)C)OC(=O)CCCCCCCCCCCCC [DIMYRISTOYLPHOSPHATIDYLCHOLINE] | 3.53 | 4.30 |
| CCCCCCCCCCCCOCCOCCOCCOCCOCCOCCOCCOCCOCCOCCO | 4.39 | 4.59 |
| CCCCCCCCCCCCOCCOCCOCCOCCO [LAURETH 4] | 3.93 | 4.43 |
| CCCCCCCCCCCCOCCOCCOCCOCCOCCOCCOCCOCCOCCOCCOCCOCCOCCOCCOCCOCCOCCOCCOCCOCCOCCOCCOCCO | 3.72 | 4.33 |
| CCCCCCCCCCCCOCCOCCOCCOCCOCCOCCOCCOCCOCCOCCOCCOCCOCCOCCOCCOCCOCCOCCOCCOCCOCCO | 3.92 | 4.47 |
